This data set in a line: plasma concentration of ibogaine and its metabolite 12-hydroxy ibogamine over time after ibogaine administration to a human patient. The format is in vivo. How it is done: An amount of ibogaine was administered to a human patient, and the plasma concentration of both ibogaine and a metabolite thereof, 12-hydroxy ibogamine, were observed as a function of time.
FIG. 1 illustrates the result of administering a certain dosage of ibogaine to a human patient, where the plasma concentration of ibogaine is measured over time. In essence, a peak plasma concentration of about 1,100 ng/ml is observed at administration. It is also notable that at about 11 hours after ibogaine administration, plasma concentration of ibogaine diminished to less than 400 ng/ml. After about 24 hours, plasma concentration diminished to less than 200 ng/ml. Thus, ibogaine is rather quickly eliminated by the patient.
By contrast, FIG. 2 illustrates the variation of noribogaine plasma concentration with time as a metabolite from the same ibogaine administration described above. In essence, a peak plasma concentration of noribogaine of about 590 ng/ml was reached only after about 11 hours from administration. Thereafter, even at 24 hours, a plasma concentration of greater than 500 ng/ml was observed.

Molecules are shown by their SMILES.

Turning to `CC[C@H]1C[C@H]2C[C@H]3c4[nH]c5ccc(O)cc5c4CCN(C2)[C@@H]13` [noribogaine, 12-hydroxy ibogamine], under “after ibogaine administration”, the “plasma half-life compared with ibogaine” value was “much longer plasma half-life than ibogaine”. Besides, for the setting “at 24 hours, noribogaine as metabolite from ibogaine administration (FIG. 2)”, the “plasma concentration of noribogaine” value is on record as “greater than 500 ng/ml”. In addition, the “time to peak plasma concentration of noribogaine” value (from ibogaine administration, noribogaine as metabolite (FIG. 2)) is “about 11 hours”. Further, the “peak plasma concentration of noribogaine” value (noribogaine as metabolite from ibogaine administration (FIG. 2)) is listed as “about 590 ng/ml”.
As for `CC[C@H]1C[C@H]2C[C@H]3c4[nH]c5ccc(OC)cc5c4CCN(C2)C13` [ibogaine, reference compound], the “peak plasma concentration of ibogaine” value (after ibogaine administration, (FIG. 1)) was “about 1,100 ng/ml”. The concentration at 24 h (plasma, after about 24 hours (FIG. 1)) is less than 200 ng/mL. The concentration at 11 h (plasma, at about 11 hours after ibogaine administration (FIG. 1)) was less than 400 ng/mL.
